From the NIST ThermoML archive (doi:10.1021/je800727f)
Numbers after ± are expanded uncertainties.

Conditions: for viscosity / mass density: 101.33 kPa, Liquid; for viscosity: dissipative quartz crystal microbalance from KSV (QCMZ500)

CCCCCCCC[n+]1ccn(C)c1.F[B-](F)(F)F [1-methyl-3-octylimidazolium tetrafluoroborate]
viscosity (293.15 K): 413 ± 71 mPa·s
mass density (298.15 K): 1100.5 ± 3.3 kg/m3
viscosity (298.15 K): 325 ± 57 mPa·s
mass density (308.15 K): 1093.7 ± 3.2 kg/m3
viscosity (308.15 K): 205 ± 35 mPa·s
mass density (318.15 K): 1087.1 ± 3.2 kg/m3
viscosity (318.15 K): 129 ± 12 mPa·s
mass density (328.15 K): 1080.5 ± 3.2 kg/m3
viscosity (328.15 K): 86 ± 7 mPa·s
surface tension liquid-gas (570.95 K): 32.7 ± 1.4 mN/m
surface tension liquid-gas (586.35 K): 32.4 ± 1.4 mN/m
surface tension liquid-gas (606.62 K): 31.3 ± 1.3 mN/m
surface tension liquid-gas (625.26 K): 30.2 ± 1.3 mN/m
surface tension liquid-gas (646.29 K): 28.1 ± 1.2 mN/m
surface tension liquid-gas (665.98 K): 27.7 ± 1.2 mN/m
surface tension liquid-gas (685.41 K): 27.2 ± 1.2 mN/m
surface tension liquid-gas (704.75 K): 25.3 ± 1.1 mN/m
surface tension liquid-gas (724.78 K): 24.5 ± 1.1 mN/m
surface tension liquid-gas (743.71 K): 23.7 ± 1.1 mN/m

C[n+]1ccn(CCO)c1.F[B-](F)(F)F [1-(2-hydroxyethyl)-3-methylimidazolium tetrafluoroborate]
viscosity (293.15 K): 1554 ± 270 mPa·s
mass density (298.15 K): 1308 ± 4.1 kg/m3
viscosity (298.15 K): 974 ± 170 mPa·s
mass density (303.15 K): 1304.7 ± 4 kg/m3
mass density (308.15 K): 1301.4 ± 4 kg/m3
viscosity (308.15 K): 477 ± 83 mPa·s
mass density (313.15 K): 1296.1 ± 4 kg/m3
mass density (318.15 K): 1294.7 ± 4 kg/m3
viscosity (318.15 K): 257 ± 45 mPa·s
mass density (323.15 K): 1291.5 ± 4 kg/m3
mass density (328.15 K): 1288.3 ± 4 kg/m3
viscosity (328.15 K): 156 ± 14 mPa·s
surface tension liquid-gas (572 K): 64.7 ± 2.4 mN/m
surface tension liquid-gas (577.78 K): 64.6 ± 2.4 mN/m
surface tension liquid-gas (587.55 K): 64 ± 2.4 mN/m
surface tension liquid-gas (597.81 K): 63.5 ± 2.4 mN/m
surface tension liquid-gas (607.58 K): 62.7 ± 2.3 mN/m
surface tension liquid-gas (626.51 K): 61.7 ± 2.3 mN/m
surface tension liquid-gas (645.35 K): 59.9 ± 2.2 mN/m
surface tension liquid-gas (665.48 K): 59.1 ± 2.2 mN/m
surface tension liquid-gas (684.42 K): 57.5 ± 2.2 mN/m
surface tension liquid-gas (703.95 K): 56.4 ± 2.1 mN/m
surface tension liquid-gas (725.28 K): 55.4 ± 2.1 mN/m
surface tension liquid-gas (743.71 K): 53.6 ± 2 mN/m
